Values of other authors in US20090022799A1, “COMPOSITIONS THAT CONTAIN BETA-GLUCAN TO BE USED FOR THE PREVENTION AND TREATMENT OF DISEASE AND METHODS FOR THEIR USE” (priority 2006, published 2009).
Counter-ions that a name gives are not always drawn.

Experiments:
[1] = forms a suspension in aqueous solution
[2] = β-Glucan particles
[3] = human clinical trials

Compound | solubility in water [1] | median particle size [2] | safety and tolerability [3]
[H]/N=C(\N/C(=N/[H])NCCCCCCNC(=N)NC(=N)Nc1ccc(Cl)cc1)Nc1ccc(Cl)cc1 [Chlorhexidine hydrochloride, chlorhexidine hydrochloride, reference compound] | limited solubility | – | –
Beta-(1→3)-d-Glucan [β-Glucan] | insoluble | 3.7-4.6 μm | safe and well-tolerated
